Test [1] concerns L. amazonensis amastigotes in primary mouse macrophages. Conditions: 10 μM, 3 days, toxic = toxic for macrophages.
Test [2] relates to T. cruzi amastigotes and trypomastigotes. The test is described as follows: T. cruzi infection assay in L929 cells (beta-galactosidase Tulahuen strain). The settings on record: infected L929 cells, 96 h; for EC50, growth of T. cruzi amastigotes and trypomastigotes: mean ± SD. The class given is cell-based, Trypanosoma cruzi.
The next test has as its target HDAC5 (Homo sapiens, UniProt Q9UQL6). Briefly: HDAC5 protease-coupled fluorescence (AMC) inhibition assay. The class given is biochemical. The settings on record: for IC50: hr enzyme, class IIa substrate Boc-Lys(trifluoroacetyl)-AMC, read-out: IC50 against HDAC5. The text has this:
(§1) The new hydroxamates 2 and 6 were screened and profiled via a protease-coupled assay in which the quantification of HDAC enzyme activity is based on the formation of a free fluorescent group, the 7-amino-4-methyl coumarin (AMC).[42] […] After deacetylation by HDACs, the de(trifluoro)acetylated AMC–peptides were sensitive toward lysine peptidase and free fluorogenic AMC was generated and quantified.[42]
To gain insights into its inhibition profile for human HDACs, we tested 3 against hrHDACs 1–6 and 8 following the above procedure (Table 1).
(§2) Individual IC50 values for each HDAC isozyme were measured with the homogeneous fluorescence release HDAC assay.[42]

For another test, the target named is HDAC11 (Homo sapiens, UniProt Q96DB2). Briefly: HDAC11 protease-coupled fluorescence (AMC) inhibition assay. The test is classed as biochemical. Conditions: hr enzyme; read-out: IC50 against HDAC11. The procedure: as §1, §2
HDAC11, sequence (Q96DB2 whole entry): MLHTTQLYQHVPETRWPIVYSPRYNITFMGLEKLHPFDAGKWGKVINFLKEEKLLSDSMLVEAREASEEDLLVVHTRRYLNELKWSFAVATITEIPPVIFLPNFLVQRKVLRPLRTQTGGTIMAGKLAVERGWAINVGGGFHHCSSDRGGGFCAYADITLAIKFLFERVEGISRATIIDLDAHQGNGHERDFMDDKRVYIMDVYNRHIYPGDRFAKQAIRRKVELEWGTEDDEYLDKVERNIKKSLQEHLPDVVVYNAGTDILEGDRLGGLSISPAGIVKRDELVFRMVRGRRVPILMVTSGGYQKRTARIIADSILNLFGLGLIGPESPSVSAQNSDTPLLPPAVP
For test [3], the system named is L. amazonensis promastigotes. Briefly: Resazurin reduction assay, L. amazonensis promastigotes. The test is classed as cell-based. The settings on record: Leishmania amazonensis, read-out: percentage of inhibition, L. amazonensis promastigotes.
The subject of test [4] is L. donovani axenic amastigotes. The test is described as follows: Resazurin reduction assay, L. donovani axenic amastigotes. The class given is cell-based. The settings on record: Leishmania donovani, read-out: percentage of inhibition, L. donovani axenic amastigotes.
Where [5] appears, read: Trypanosoma cruzi, read-out: percentage of T. cruzi growth inhibition.
Where [6] appears, read: Trypanosoma cruzi, toxic = L929 death, read-out: percentage of T. cruzi growth inhibition.

HDAC5, sequence (Q9UQL6 whole entry): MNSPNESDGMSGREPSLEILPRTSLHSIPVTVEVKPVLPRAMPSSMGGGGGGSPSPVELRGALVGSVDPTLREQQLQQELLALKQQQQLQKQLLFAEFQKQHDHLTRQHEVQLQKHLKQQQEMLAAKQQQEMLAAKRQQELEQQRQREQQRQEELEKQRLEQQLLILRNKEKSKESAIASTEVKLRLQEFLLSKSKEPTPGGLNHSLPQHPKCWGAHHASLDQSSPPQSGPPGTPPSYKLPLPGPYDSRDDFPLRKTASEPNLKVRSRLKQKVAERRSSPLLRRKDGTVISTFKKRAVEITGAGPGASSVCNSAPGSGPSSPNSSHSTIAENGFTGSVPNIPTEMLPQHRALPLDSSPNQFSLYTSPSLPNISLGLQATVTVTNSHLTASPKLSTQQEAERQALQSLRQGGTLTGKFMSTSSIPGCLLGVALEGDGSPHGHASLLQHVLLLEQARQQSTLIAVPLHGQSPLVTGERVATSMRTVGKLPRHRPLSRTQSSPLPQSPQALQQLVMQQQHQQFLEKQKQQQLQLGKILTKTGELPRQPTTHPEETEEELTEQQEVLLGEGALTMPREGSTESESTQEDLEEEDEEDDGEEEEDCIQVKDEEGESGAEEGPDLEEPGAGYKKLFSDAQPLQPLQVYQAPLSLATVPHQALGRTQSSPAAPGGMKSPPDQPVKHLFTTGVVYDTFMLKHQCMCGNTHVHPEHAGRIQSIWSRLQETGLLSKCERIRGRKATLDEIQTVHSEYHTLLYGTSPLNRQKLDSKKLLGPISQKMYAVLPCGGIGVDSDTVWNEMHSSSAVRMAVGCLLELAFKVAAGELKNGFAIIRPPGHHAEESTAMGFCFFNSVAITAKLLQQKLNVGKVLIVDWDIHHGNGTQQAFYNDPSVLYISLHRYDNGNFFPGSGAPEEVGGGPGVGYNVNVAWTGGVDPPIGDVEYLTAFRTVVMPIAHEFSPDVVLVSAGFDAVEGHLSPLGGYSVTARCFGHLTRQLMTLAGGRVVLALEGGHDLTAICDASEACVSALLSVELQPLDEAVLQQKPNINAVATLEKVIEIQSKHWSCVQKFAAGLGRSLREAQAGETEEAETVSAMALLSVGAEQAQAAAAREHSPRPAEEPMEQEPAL

Regarding `O=C(/C=C/c1ccc(CSc2nc(Cl)cc(-c3ccccc3)n2)cc1)NO` [Compound 2, 3-(4-(((4-Chloro-6-phenylpyrimidin-2-yl)thio)methyl)phenyl)-N-hydroxy Acrylamide], the “HCA outcome against intramacrophagic L. amazonensis amastigotes” value in test [1] is “toxic”. In addition, the “percentage of T. cruzi growth inhibition” value is recorded as “toxic” in test [2] (40 μM, toxic = L929 death); “toxic” in test [2] (80 μM, toxic = L929 death); “toxic” in test [2] (160 μM, toxic = L929 death). Also, the inhibition at 1.25 µM in test [2] (setting [5]) turned out to be 0%. In test [2] (setting [6]), the inhibition at 2.5 µM was 0%. Further, the inhibition at 5 µM in test [2] (setting [6]) turned out to be 0%. Besides, in test [2] (Trypanosoma cruzi, 10 μM, toxic = L929 death, read-out: percentage of T. cruzi growth inhibition), the inhibition at 10 µM was determined as 0%. Besides, the inhibition at 20 µM in test [2] (Trypanosoma cruzi, 20 μM, toxic = L929 death, read-out: percentage of T. cruzi growth inhibition) was determined as 3%; in test [3], 83.3 ± 1.8%; in test [4], 60.2 ± 1.4%. The “EC50, growth of T. cruzi amastigotes and trypomastigotes” value in test [2] was “inactive”. Further, the values for the half-maximal inhibitory concentration (IC50) at HDAC5 and on HDAC11 were 22.9 µM and 2.31 µM, respectively. Also, the inhibition at 4 µM in test [3] was found to be 11.3 ± 1.7%; in test [4], 7.8 ± 1.1%. For the same compound, the inhibition at 0.8 µM in test [4] came to 16.4 ± 18.6%.

Turning to `CN(C)Cc1ccc(S(=O)(=O)n2ccc3cc(/C=C/C(=O)NO)ccc32)cc1` [Compound 6, 3-(1-((4-((Dimethylamino)methyl)phenyl)sulfonyl)-1H-indol-5-yl)-N-hydroxy Acrylamide], the “HCA outcome against intramacrophagic L. amazonensis amastigotes” value in test [1] is reported as “toxic”. The “percentage of T. cruzi growth inhibition” value is “toxic” in test [2] (10 μM, toxic = L929 death); “toxic” in test [2] (20 μM, toxic = L929 death); “toxic” in test [2] (40 μM, toxic = L929 death); “toxic” in test [2] (80 μM, toxic = L929 death); “toxic” in test [2] (160 μM, toxic = L929 death). For the same compound, the inhibition at 1.25 µM in test [2] (setting [5]) is 0%. In addition, in test [2] (setting [6]), the inhibition at 2.5 µM came to 0%. Further, the inhibition at 5 µM in test [2] (setting [6]) was determined as 3%. Moreover, in test [2], the “EC50, growth of T. cruzi amastigotes and trypomastigotes” value was “inactive”. Moreover, the values for the IC50 at HDAC5 and at HDAC11 were 3.43 µM and 4.87 µM, respectively. Besides, the “fold more potent against HDAC5 than against HDAC4” value at HDAC5 (ratio of IC50 HDAC4 / HDAC5) amounted to 5 fold. Further, the inhibition at 4 µM was 9.2 ± 3.4% in test [3] and 0.1 ± 0.8% in test [4]. Further, the inhibition at 20 µM in test [3] turned out to be 60.1 ± 1.7%; in test [4] it was 39.6 ± 5.5%. Moreover, the inhibition at 0.8 µM in test [4] amounted to 39.9 ± 2.1%.

These data come from publication PMC9274761, “Effects of Structurally Different HDAC Inhibitors against Trypanosoma cruzi, Leishmania, and Schistosoma mansoni” (ACS Infectious Diseases, 2022).
